Laboratory results taken from US20230103554A1, “TNFa SIGNALING [sequence] TUMOR-PROMOTING INFLAMMATION THAT CAN BE TARGETED TO THERAPY” (Baylor College of Medicine, priority 2020, published 2023).

Legend:
[1] = tested on: NF-κB signaling in monocytes; experiment: Intracellular IκBα in monocyte population of co-culture (PhosFlow flow cytometry); type: cell-based, human; conditions: 10 μg/mL etanercept
Experimental: Monocytes were directly cultured with wild-type or TNF, TNFR1, TNFR2 KO NB cell lines in ULA plates for 24 hours. Activation of NF-kB in monocytes and NB was measured by flow cytometry and cytokine production measured by ELISA from co-culture supernatant. To evaluate the contact-dependence of monocyte activation by NB, monocytes were cultured in ULA plates with seven-day NB conditioned medium mixed 1:1 with complete monocyte medium for 24 hours and analyzed for IL-6 production. To assess the growth advantage of NB cultured with monocytes, NB-luc cell lines and monocytes were seeded in tissue culture-treated white 96-well plates (1:1 ratio) and cultured for four days. Luminescence was measured using a TECAN Spark plate reader (TECAN). To evaluate changes in proliferation, NB was pulsed for 10 minutes in CellTrace Violet (2 μM, Invitrogen) and seeded at 100,000 cells per well in a 12-well tissue culture-treated plate. Monocytes were added directly to the NB monolayer at a density of 100,000 per well and incubated for four days. CellTrace Violet expression was analyzed by flow cytometry.
To evaluate the expression of TNFα in NB and monocytes, cells were first stimulated with LPS (50 ng/mL) in the presence of GolgiStop (BD Biosciences) and fixed using CytoFix/Cytoperm buffer (BD Biosciences). Cells were then stained with TNFα-PE (BD Biosciences). To evaluate the expression of TNFR1 and TNFR2 on NB and monocytes, cells were stained with TNFR1-BV421 and TNFR2-APC (BD Biosciences) in FACS staining buffer containing 0.05% sodium azide to prevent receptor/antibody processing. To estimate changes in NF-kB expression, treated co-cultures were first stained with ZombieViolet (1 μL/test, Biolegend) to counterstain dead cells and APC-H7 CD45 and/or FITC-CD14 to label monocytes for 20 minutes at room temperature. […] All flow samples were run using an LSRII 5-laser flow cytometer (Texas Children's Hospital Cancer Center Flow Cytometry Core, Houston, Tex.) and analyzed using FlowJo Software (Treestar).

[2] = tested on: SK-N-AS and monocytes; experiment: Tumorsphere cluster formation in low attachment plates; type: cell-based, human; conditions: 10 μg/mL etanercept, 24 hours, ultra low attachment plates
[3] = tested on: NB tumor cell gene expression; experiment: Eukaryotic mRNA-seq of xenograft tumors; type: in vivo; conditions: mouse transcripts, vs control tumors
From the text: (FIG. 17A) Tumors recovered from mice in FIG. 16 were snap frozen in OTC media, thin sectioned, and stained for murine CD31 expression (red) and DAPI counterstain (blue). Results shown are representative images from five fields of view (FOVs) per tumor, with five tumors per group. Scale bar 50 μm. (FIG. 17B) Total number of CD31+ regions per FOV with box and whisker plot showing quartiles±range (Ctrl n=15, Etan n=25). (FIG. 17C) Size of each CD31+ area quantified per FOV; shown is median CD31+ area per FOV with box and whisker plot showing quartiles±range (Ctrl n=15, Etan n=25) (FIG. 17D) Longest distance across each CD31+ area (Max Feret distance) per FOV; shown is median distance per FOV with box and whisker plot showing quartiles±range (Ctrl n=15, Etan n=25). […]
Total RNA from cell pellets was isolated using the RNeasy Micro Plus Kit (Qiagen). […] Relative changes in gene expression were calculated based on the ΔCt method using housekeeping gene GAPDH as control. […]
Eukaryotic mRNA sequencing with 30M depth and 150 paired end reads was performed by Novogene, Inc. Quality control checks on FASTQ sequencing files were performed by FastQC (v0.11.2, https://www.bioinformatics.babraham.ac.uk/projects/fastqc/). Reads were then aligned to human (GRCh38, Ensembl release version 84) or mouse (GRCm38, Ensembl release version 81) reference genomes separately by hisat2 v2.1.0(51). […]

Substance: etanercept
- reversal of IκBα degradation in monocytes ([1]; CHLA-255 + monocytes, 24 hours (FIG. 15C)): complete
- IκBα levels in monocytes ([1]; SK-N-AS + monocytes, 24 hours): increasing monocyte levels of IκBα
- association of NB/monocytes into tumorsphere clusters [2]: blocking the ability of NB/monocytes to associate into tumorsphere clusters
- infiltration of erythrocytes, platelets, and neutrophils (mouse stroma gene expression) [3]: reduced infiltration of erythrocytes, platelets, and neutrophils
